Results: patent publication EP0979823B1, “NOVEL AMIDE COMPOUNDS AND DRUGS CONTAINING THE SAME” (Kowa Company Ltd., priority 1997, dated 1999)
Read-outs that look alike come from different tables or passages of the source.

What was measured:
[1] = tested on: HepG2 cells; assay: ACAT inhibitory activity (anti-foamation activity) in HepG2 cells; type: cell-based; details: 10 µg/ml 25-OH cholesterol, 18 hours, cholesterol ester = TC minus FC per protein, read-out: Enzyme (HepG2) IC50
Procedure: (§1) J774 cells or HepG2 cells were spread on a 24-well plate. The cells were incubated in a 5% CO2 incubator at 37°C for 24 hours using DMEM in the case of the J774 cells and a MEM culture solution in the case of the HepG2 cells (both containing 10% fetal calf serum).
(§2) The medium was removed, and the residue was washed twice with PBS, then extracted with 1.5 ml of a hexane:isopropanol (3:2) mixture, and concentrated to dryness. The extract was dissolved in 0.2 ml of isopropanol containing 10% Triton X-100. Total cholesterol (TC) and free cholesterol (FC) were measured using Cholesterol E Test Wako (supplied by Wako Pure Chemical Industries, Ltd.) and Free Cholesterol E Test Wako (supplied by Wako Pure Chemical Industries, Ltd.).
(§3) The cell extract residue was solubilized in 0.25 ml of 2N NaOH at 37°C for 30 minutes, and the protein amount was measured using BCA Protein Assay Reagent (Pierce).
(§4) The amount of cholesterol based on the protein was calculated from the difference between TC and FC, and an IC50 value was obtained from the calculation in contrast with the control.

[2] = tested on: J774 cells; assay: ACAT inhibitory activity (anti-foamation activity) in J774 cells; type: cell-based; details: for IC50: J774 cells, 10 µg/ml 25-OH cholesterol, 18 hours, cholesterol ester = TC minus FC per protein, read-out: Enzyme (J774) IC50; for IC50 (HepG2) / IC50 (J774): ratio HepG2 / J774
Procedure: as §1, §2, §3, §4

[3] = target: ACAT enzyme from the blood vessel wall (Oryctolagus cuniculus, UniProt G1SUQ0); assay: ACAT inhibitory activity, microsomal enzyme from the blood vessel wall (breast aorta); type: biochemical, rabbit; details: for IC50 (B‡) / IC50 (A‡): ratio small intestine / blood vessel wall
Sequence of ACAT enzyme from the blood vessel wall (G1SUQ0 entry or part of it): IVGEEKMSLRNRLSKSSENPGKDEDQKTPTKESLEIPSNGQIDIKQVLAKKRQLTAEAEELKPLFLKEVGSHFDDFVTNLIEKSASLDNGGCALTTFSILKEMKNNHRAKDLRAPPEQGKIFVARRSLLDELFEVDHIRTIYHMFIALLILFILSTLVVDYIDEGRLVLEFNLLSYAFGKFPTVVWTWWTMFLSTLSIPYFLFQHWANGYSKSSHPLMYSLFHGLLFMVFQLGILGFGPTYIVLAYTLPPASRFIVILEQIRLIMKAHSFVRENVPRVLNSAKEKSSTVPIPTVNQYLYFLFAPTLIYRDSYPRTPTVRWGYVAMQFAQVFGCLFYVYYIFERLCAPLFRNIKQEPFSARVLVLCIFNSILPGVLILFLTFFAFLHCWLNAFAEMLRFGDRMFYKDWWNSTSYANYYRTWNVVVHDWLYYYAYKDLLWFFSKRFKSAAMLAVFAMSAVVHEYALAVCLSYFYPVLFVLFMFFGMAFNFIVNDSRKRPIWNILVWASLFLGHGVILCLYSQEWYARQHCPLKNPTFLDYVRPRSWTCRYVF
Procedure: A microsome was prepared from the breast aorta of a rabbit which had been fed with 1% cholesterol food for 8 weeks in a usual manner, and suspended in a 0.15 M phosphate buffer solution (pH 7.4) to form an enzyme solution. An enzyme solution derived from the small intestine was prepared from the small intestine of a rabbit that had eaten a normal food.
To this solution were added 10 µl of the enzyme solution, and the mixture was reacted at 37°C for 5 minutes (for 3 minutes in the case of the small intestine). Then, 3 ml of a chloroform/methanol (2/1) mixture and 0.5 ml of 0.04 N hydrochloric acid were added thereto to stop the reaction. The lipid was then extracted. The solvent layer was concentrated to dryness, and dissolved in hexane. The solution was spotted on a TLC plate (supplied by Merck Co.). The elution was conducted with a hexane:ether:acetic acid (75:25:1) mixture.
The radioactivity of the resulting cholesterol ester fraction was measured using BAS 2000 (supplied by Fuji Photo Film Co., Ltd.). An IC50 value was obtained from the calculation in contrast with a control containing only DMSO.

| IC50 ([1]; Homo sapiens) [nM] | IC50 ([2]; Mus musculus) [nM] | IC50 (HepG2) / IC50 (J774) [2] | IC50 [1] [nM] | IC50 [2] [nM] | IC50 ([3]; A‡: the blood vessel wall, microsome from breast aorta of rabbit fed 1% cholesterol food for 8 weeks, 14C-Oleoyl-CoA 40 µM, 37°C, 5 minutes) [nM] | IC50 (B‡) / IC50 (A‡) [3] | SMILES |
| --- | --- | --- | --- | --- | --- | --- | --- |
| 1800 | 50 | 36.0 |  |  |  |  | CCSc1cc(C)nc(SCC)c1NC(=O)CSc1nc2ccccc2o1 [Compound No. 811, 2-(benzoxazol-2-ylthio)-N-[2,4-bis(ethylthio)-6-methyl-3-pyridyl]acetamide] |
| 5400 | 57 | 94.7 |  |  |  |  | CCSc1cc(C)nc(SCC)c1NC(=O)CSc1nc2ccccc2[nH]1 [Compound No. 831, 2-(benzimidazol-2-ylthio)-N-[2,4-bis(ethylthio)-6-methyl-3-pyridyl]acetamide] |
| 1600 | 1900 | 0.8 |  |  |  |  | CC(C)c1cccc(C(C)C)c1NC(=O)CCCCCSc1nc2ccccc2o1 [Control 5, 6-(benzoxazol-2-ylthio)-N-(2,6-diisopropylphenyl)hexanamide, reference compound] |
|  |  | 0.6 | 2.4 | 4.2 |  |  | Cc1cc(SC(C)C)c(NC(=O)CCCCCCCCSc2nc3cccc(C(F)(F)F)c3o2)c(SC(C)C)n1 [compound 1294, 9-(7-trifluoromethylbenzoxazol-2-ylthio)-N-[2,4-bis(isopropylthio)-6-methyl-3-pyridyl] nonanamide] |
| 350 | 50 | 7.0 |  |  |  |  | CSc1cc(C)nc(SC)c1NC(=O)CCCCCSc1nc2ccccc2s1 [Compound No. 795, 6-(benzothiazol-2-ylthio)-N-[2,4-bis(methylthio)-6-methyl-3-pyridyl]hexanamide] |
| 6.2 | 3.2 | 1.9 |  |  |  |  | CCSc1cc(C)nc(SCC)c1NC(=O)CCCCCCSc1nc2c(C)c(Cl)cc(C(C)C)c2o1 [Compound No. 1282, 7-(5-chloro-7-isopropyl-4-methylbenzoxazol-2-ylthio)-N-[2,4-bis(ethylthio)-6-methyl-3-pyridyl]heptanamide] |
|  |  | 11.1 | 30 | 2.7 |  |  | Cc1cc(SC(C)C)c(NC(=O)CCCCCCSc2nc3cccc(C(F)(F)F)c3o2)c(SC(C)C)n1 [Compound No. 1292, 7-(7-trifluoromethylbenzoxazol-2-ylthio)-N-[2,4-bis(isopropylthio)-6-methyl-3-pyridyl] heptanamide] |
| 4.4 | 4.1 | 1.1 |  |  |  |  | CSc1cc(C)nc(SC)c1NC(=O)CCCCCCCSc1nc2cccc(C(F)(F)F)c2o1 [Compound No. 1253, 8-(7-trifluoromethylbenzoxazol-2-ylthio)-N-[2,4-bis(methylthio)-6-methyl-3-pyridyl]octanamide] |
| 29 | 3.6 | 8.1 |  |  |  |  | CSc1cc(C)nc(SC)c1NC(=O)CCCCCCCSc1nc2ccccc2s1 [Compound No. 797, 8-(benzthiazol-2-ylthio)-N-[2,4-bis(methylthio)-6-methyl-3-pyridyl)octanamide] |
| 1300 | 320 |  |  |  |  |  | CCCCCCCCCN(CC(C)(C)C)C(=O)N[C@H]1CCCC[C@@H]1OC(=O)CCNC(=O)C1OC(C)(C)OCC1(C)C (stereo partly drawn) [Control 3, N-(2,2,5,5-tetramethyl-1,3-dioxan-4-ylcarbonyl)-β-alanine 2 (S)-[N'-(2,2-dimethylpropyl)-N'-nonylureido]-1(S)-cyclohexyl ester, reference compound] |
| 2600 | 120 | 21.7 |  |  |  |  | CCSc1cc(C)nc(SCC)c1NC(=O)CCCCCSc1nc2ccccc2o1 [Compound No. 815, 6-(benzoxazol-2-ylthio)-N-[2,4-bis(ethylthio)-6-methyl-3-pyridyl]hexanamide] |
| 5300 | 560 | 9.5 |  |  | 450 | 1.9 | CC(C)c1cccc(C(C)C)c1NC(=O)C(C)(C)CCCOc1ccc2c(c1)C=C(c1nccn1C)C(CCc1ccc(F)cc1)O2 (centres unmarked) [Control 1, 5-[2-(2-(4-fluorophenyl)ethyl)-3-(1-methyl-1H-imidazol-2--yl)-2H-1-benzopyran-6-yl]oxy-2,2-dimethyl-N-(2,6-diisopropylphenyl)pentanamide, reference compound] |
| 750 | 120 | 6.3 |  |  |  | 1.4 | CCCCCCCN(CCCCCSc1nc(-c2ccccc2)c(-c2ccccc2)[nH]1)c1nc2ccccc2o1 [Control 4, [5-(4,5-diphenyl-1H-imidazol-2-ylthio)pentyl]-N-heptyl-2-benzoxazolamie, reference compound] |
| 15 | 2.1 | 7.1 |  |  |  |  | Cc1cc(SC(C)C)c(NC(=O)CCCCCCSc2nc3c(C)c(Cl)cc(C(C)C)c3o2)c(SC(C)C)n1 [Compound No. 1302, 7-(5-chloro-7-isopropyl-4-methylbenzoxazol-2-ylthio)-N-[2,4-bis(isopropylthio)-6-methyl-3-pyridyl]heptanamide] |
| 63 | 62 | 1.0 |  |  |  |  | CCSc1cc(C)nc(SCC)c1NC(=O)CCCCCCCCSc1nc2ccccc2o1 [Compound No. 818, 9-(benzoxazol-2-ylthio)-N-[2.4-bis(ethylthio)-6-methyl-3-pyridyl]nonanamide] |
